Structures can show the parent of a compound that is named as a salt. Where two headings read alike, the source gives them in different places.
Assays:
[1] = target: T1, [^3H]-dopamine uptake in rat striatal synaptosomes (Rattus norvegicus, UniProt P23977); assay: In vitro [3H]-dopamine uptake in rat striatal synaptosomes; type: biochemical
T1 construct: a crude synaptosomal fraction (P2) was prepared by homogenization and centrifugation; from tissue; host or cells: rat striatum, crude synaptosomal fraction (P2)
T1 sequence (P23977 whole entry): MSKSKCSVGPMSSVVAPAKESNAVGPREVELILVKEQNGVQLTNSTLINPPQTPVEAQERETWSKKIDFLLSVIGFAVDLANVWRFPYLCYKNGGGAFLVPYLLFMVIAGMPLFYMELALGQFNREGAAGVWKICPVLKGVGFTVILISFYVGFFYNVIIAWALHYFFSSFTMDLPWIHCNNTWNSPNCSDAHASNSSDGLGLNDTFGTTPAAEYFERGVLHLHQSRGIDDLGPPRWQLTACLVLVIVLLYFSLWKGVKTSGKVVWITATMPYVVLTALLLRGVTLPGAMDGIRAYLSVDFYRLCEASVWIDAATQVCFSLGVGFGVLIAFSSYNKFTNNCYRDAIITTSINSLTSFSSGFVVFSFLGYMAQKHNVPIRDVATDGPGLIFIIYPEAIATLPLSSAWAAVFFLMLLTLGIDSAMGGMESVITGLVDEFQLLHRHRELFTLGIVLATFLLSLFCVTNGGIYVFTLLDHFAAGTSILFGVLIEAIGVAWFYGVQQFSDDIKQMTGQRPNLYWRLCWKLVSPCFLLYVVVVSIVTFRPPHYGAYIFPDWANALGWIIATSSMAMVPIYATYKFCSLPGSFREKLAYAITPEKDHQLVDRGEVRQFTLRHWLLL

| melting point | SMILES | other results |
| --- | --- | --- |
| 144 to 145 °C | c1cnc2[nH]c(C3CCCNC3)cc2c1 (centres unmarked) |  |
| 130 to 131 °C | CN1CCC[C@H]1Cc1cc2cccnc2[nH]1 |  |
| > 250 °C (dec.) | Clc1ccnc2[nH]c(C3CCCNC3)cc12 (centres unmarked) (as salt: HCl) |  |
| > 275 °C (dec.) | C1=C(c2cc3cccnc3[nH]2)CNCC1 (as salt: HCl) [Compound 25, 2-(1,2,5,6-tetrahydro-pyridin-3-yl)-1H-pyrrolo[2,3-b]pyridine] |  |
|  | c1cnc2[nH]cc(C[C@@H]3CCCN3)c2c1 (stereo in doubt) [Compound 97, (S)-3-Pyrrolidin-2-ylmethyl-1H-pyrrolo[2,3-b]pyridine] | IC50 ([1]; read-out: Functional activity re-uptake [^3H]-Dopamine pIC50 (converted)): > 10 µM |
|  | CN1CCC[C@H]1Cc1c[nH]c2ncccc12 (stereo in doubt) [Compound 99, (S)-3-(1-Methyl-pyrrolidin-2-ylmethyl)-1H-pyrrolo[2,3-b]pyridine] | IC50 [1]: > 10 µM |
| 185 °C | c1cnc2[nH]cc(C3CN4CCC3CC4)c2c1 (centres unmarked) [Compound 16, 3-(1H-Pyrrolo[2,3-b]pyridin-3-yl)-1-aza-bicyclo[2.2.2]octane] |  |
| 190 °C | c1cnc2[nH]c(C3CN4CCC3CC4)cc2c1 (centres unmarked) [Compound 21, 3-(1H-Pyrrolo[2,3-b]pyridin-2-yl)-1-aza-bicyclo[2.2.2]octane] |  |

From patent US8252930B2, “Azaindole derivatives with a combination of partial nicotinic acetyl-choline receptor agonism and dopamine reuptake inhibition” (Solvay Pharmaceuticals B.V., priority 2006, dated 2012)
